Measurements as given in patent publication US6951870B2, “Coumarin derivatives with COMT inhibiting activity” (Orion Corporation, priority 2000, dated 2005).

Molecular target: T1, S-COMT enzyme (Homo sapiens, UniProt P21964)
T1 sequence (P21964 1-221 isoform P21964-2): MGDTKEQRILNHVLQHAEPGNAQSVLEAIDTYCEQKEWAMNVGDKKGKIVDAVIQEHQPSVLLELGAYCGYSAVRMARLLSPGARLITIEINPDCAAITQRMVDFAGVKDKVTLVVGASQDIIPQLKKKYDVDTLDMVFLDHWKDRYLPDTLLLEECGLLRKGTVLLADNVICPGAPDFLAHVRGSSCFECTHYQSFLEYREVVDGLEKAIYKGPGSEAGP
Experiment: Determination of COMT activity (IC50)
Format: biochemical
Conditions: S-COMT about 30 nM, 3 mM dopamine substrate, 0.05 mM AdoMet, 5 mM MgCl2, pH 7.4, 37° C., 15 min
Procedure: Experiment I: Determination of COMT Activity (IC50)
The determination of IC50 was performed by mesuring the COMT activity in a test sample which contained S-COMT enzyme (about 30 nM), 3 mM dopamine (as the substrate of COMT), 5 mM magnesium chloride, 0.05 mM S-adenosyl-L-methionine (AdoMet) and a test compound of the invention at various concentrations in 0.1 M phosphate buffer, pH 7.4, at 37° C.
The reaction in the test sample was initiated by adding the dopamine substrate to the sample mixture and, after incubation for 15 min at 37° C., the reaction was stopped with 4 M perchloric acid and stabilized further 10 min in ice bath. Thereafter the precipitated proteins were removed by centrifugation (4000×G for 10 min). The activity of COMT enzyme was measured by determining the concentration of the reaction products, 3-methyldopamine and 4-methyidopamine, by HPLC. The results were calibrated with 3-methyidopamine standards. See also T.Lotta et al., Biochemistry, vol.34(13), 1995, p.4204, T.Lotta et al. The IC50 value is the concentration of the test compound which causes a 50% decrease in COMT activity.

Question: With O=C(O)c1cc2cc(O)c(O)c([N+](=O)[O-])c2oc1=O [Example 10(d), 6,7-Dihydroxy-8-nitro-2-oxo-2H-chromene-3-carboxylic acid] as the compound, how does the IC50 read?
Answer: 35 nM

Question: For O=c1oc2cc(O)c(O)c([N+](=O)[O-])c2cc1-c1nnn[nH]1 [Example 12(b), 6,7-Dihydroxy-5-nitro-3-(1H-tetrazol-5-yl)-chromen-2-one], which IC50 is on record?
Answer: 10 nM

Question: O=C(O)Cc1cc2c([N+](=O)[O-])c(O)c(O)cc2oc1=O [Example 11(c), (6,7-Dihydroxy-5-nitro-2-oxo-2H-chromen-3-yl)-acetic acid] was tested. Which IC50 did it give?
Answer: 10 nM

Question: O=c1oc2c([N+](=O)[O-])c(O)c(O)cc2cc1-c1ccccc1 [Example 6(b), 6,7-Dihydroxy-8-nitro-3-phenyl-chromen-2-one] was tested. Which IC50 did it give?
Answer: 30 nM

Question: For O=C(c1ccccc1)c1cc2c([N+](=O)[O-])c(O)c(O)cc2oc1=O [Example 7, 3-Benzoyl-6,7-dihydroxy-5-nitro-chromen-2-one], which IC50 is on record?
Answer: 30 nM

Question: Cc1c(CC(=O)O)c(=O)oc2cc(O)c(O)c([N+](=O)[O-])c12 [Example 13(c), (6,7-Dihydroxy-4-methyl-5-nitro-2-oxo-2H-chromen-3-yl)-acetic acid] was tested. Which IC50 did it give?
Answer: 60 nM

Question: O=C(O)c1cc2c([N+](=O)[O-])c(O)c(O)cc2oc1=O [Example 9(c), 6,7-Dihydroxy-5-nitro-2-oxo-2H-chromene-3-carboxylic acid] was tested. Which IC50 did it give?
Answer: 20 nM

Question: With O=c1oc2cc(O)c(O)c([N+](=O)[O-])c2c2c1CCCC2 [Example 8, 2,3-Dihydroxy-1-nitro-7,8,9,10-tetrahydro-benzo[c]chromen-6-one] as the compound, how does the IC50 read?
Answer: 50 nM
